Source: patent publication US6337091B1, “Matrix for controlled delivery of highly soluble pharmaceutical agents” (Temple University - of the Commonwealth System of Higher …, priority 1997, dated 2002)

Assays:
[1] = Dissolution study of diltiazem hydrochloride tablets, USP 23 apparatus II (paddle), deionized water; format: physicochemical
Procedure: The system was automated using an HP diode array UV spectrophotometer, 8452a with continuous sampling, using a peristaltic pump (HP flow control, 89092A) and Mckinet software (HP 89532K Multicell Kinetics Software) for data analysis. Measurements were performed at 238 nm. […] Fresh dissolution medium (5 mL), heated to 37° C., was added to the vessel to maintain constant volume. Each experimental ran (n=3) was done at least in duplicate. […]

[2] = cited from earlier work
[3] = cited from earlier work; remark: listed apart in the source
[4] = Dissolution study of propranolol tablets in deionized water; format: physicochemical
Procedure: The dissolution study was performed in 1,000 ml deionized water at 37° C. and 100 rpm. Measurements were performed at wavelength 289 nm.

correlation coefficient of release profile (linearity) ([1]; absence of either gelatin or tragacanth)	correlation coefficient of release profile (linearity) ([1]; diltiazem granulated/coated with gelatin, in binary polymeric matrix)	correlation coefficient of release profile (linearity) ([1]; diltiazem granulated/coated with tragacanth, in binary polymeric matrix)	degradation product, HPLC analysis (USP 23 method) ([1]; entire dissolution period)	correlation coefficient of release profile (linearity) ([4]; control)	correlation coefficient of release profile (linearity) ([4]; propranolol granulated/coated with gelatin, in binary polymeric matrix)	correlation coefficient of release profile (linearity) ([4]; propranolol granulated/coated with tragacanth, in binary polymeric matrix)	Compound	protein binding [2]	bioavailability ([3]; due to extensive variable first-pass metabolism) [%]	clearance from plasma ([3]; in vivo)	elimination half-life ([3]; in vivo) [h]
0.946	0.997	0.979	no degradation product	–	–	–	COc1ccc([C@@H]2Sc3ccccc3N(CCN(C)C)C(=O)[C@@H]2OC(C)=O)cc1 [diltiazem, Diltiazem]	greater than 90%	30 to 60	high clearance	3 to 6
–	–	–	–	0.927	0.994	0.989	CC(C)NCC(O)COc1cccc2ccccc12 (centres unmarked) [propranolol]	–	–	–	–
